From the NIST ThermoML archive (doi:10.1016/j.jct.2012.05.014)

Assay: xn = mol fraction of the nth substance listed
Conditions: Fluid (supercritical or subcritical phases), Gravimetric method

CCCCNC(=O)C(=O)NCCCC [N,N'-dibutyloxalamide] + O=C=O
Conditions	mass density [kg/m3]
313 K, 9100 kPa, x1 = 0.0002628	517.19
313 K, 9300 kPa, x1 = 0.0005167	556.08
313 K, 9500 kPa, x1 = 0.0008035	584.52
313 K, 9700 kPa, x1 = 0.001136	606.4
313 K, 9800 kPa, x1 = 0.001295	615.65
323 K, 10300 kPa, x1 = 0.0001531	423.74
323 K, 10600 kPa, x1 = 0.0003084	460.74
323 K, 10900 kPa, x1 = 0.000518	495.1
323 K, 11100 kPa, x1 = 0.0007008	515.81
323 K, 11300 kPa, x1 = 0.000942	534.61
333 K, 11600 kPa, x1 = 0.0003355	405.21
333 K, 12000 kPa, x1 = 0.0005099	436.26
333 K, 12300 kPa, x1 = 0.0007204	458.89
333 K, 12500 kPa, x1 = 0.0009202	473.43
333 K, 12700 kPa, x1 = 0.001115	487.42
343 K, 12100 kPa, x1 = 0.0003508	352.31
343 K, 12500 kPa, x1 = 0.000503	374.67
343 K, 12800 kPa, x1 = 0.000639	391.64
343 K, 13000 kPa, x1 = 0.0007821	402.95
343 K, 13200 kPa, x1 = 0.0009026	414.22
353 K, 12600 kPa, x1 = 0.0003735	322.59
353 K, 13100 kPa, x1 = 0.0005294	344.33
353 K, 13500 kPa, x1 = 0.0006999	362.01
353 K, 13800 kPa, x1 = 0.0008396	375.36
353 K, 14000 kPa, x1 = 0.0009729	384.26

CCCCCCNC(=O)C(=O)NCCCCCC [N1,N2-dihexyloxalamide] + O=C=O
Conditions	mass density [kg/m3]
313 K, 9100 kPa, x1 = 0.000112	517.19
313 K, 9500 kPa, x1 = 0.0002518	584.52
313 K, 9800 kPa, x1 = 0.000392	615.65
313 K, 10100 kPa, x1 = 0.0005214	638.82
313 K, 10400 kPa, x1 = 0.0006463	657.22
323 K, 10700 kPa, x1 = 0.0001583	472.58
323 K, 11100 kPa, x1 = 0.0003041	515.81
323 K, 11400 kPa, x1 = 0.0004264	543.31
323 K, 11700 kPa, x1 = 0.0005407	566.85
323 K, 12000 kPa, x1 = 0.0006537	587.07
333 K, 11900 kPa, x1 = 0.0002196	428.55
333 K, 12300 kPa, x1 = 0.0003629	458.89
333 K, 12600 kPa, x1 = 0.0004822	480.5
333 K, 12900 kPa, x1 = 0.0006024	500.8
333 K, 13200 kPa, x1 = 0.0007245	519.67
343 K, 12500 kPa, x1 = 0.000277	374.67
343 K, 12900 kPa, x1 = 0.0003827	397.3
343 K, 13200 kPa, x1 = 0.0004661	414.22
343 K, 13500 kPa, x1 = 0.00056	430.94
343 K, 13700 kPa, x1 = 0.0006445	441.9
353 K, 12800 kPa, x1 = 0.0003133	331.22
353 K, 13300 kPa, x1 = 0.0004305	353.15
353 K, 13700 kPa, x1 = 0.0005336	370.9
353 K, 14000 kPa, x1 = 0.0006155	384.26
353 K, 14300 kPa, x1 = 0.0007224	397.58

CCCCCCCCNC(=O)C(=O)NCCCCCCCC [N1,N2-dioctyloxalamide] + O=C=O
Conditions	mass density [kg/m3]
313 K, 11700 kPa, x1 = 0.0001449	710.44
313 K, 12000 kPa, x1 = 0.0001679	719.38
313 K, 12500 kPa, x1 = 0.0002108	732.67
313 K, 13000 kPa, x1 = 0.00025	744.41
313 K, 13400 kPa, x1 = 0.000284	752.9
323 K, 12300 kPa, x1 = 0.0001146	604.62
323 K, 12900 kPa, x1 = 0.0001562	633.72
323 K, 13400 kPa, x1 = 0.000212	653.57
323 K, 13900 kPa, x1 = 0.0002628	670.57
323 K, 14400 kPa, x1 = 0.0003178	685.43
333 K, 12900 kPa, x1 = 9.49e-05	500.8
333 K, 13500 kPa, x1 = 0.0001511	537.09
333 K, 13900 kPa, x1 = 0.0002093	558.17
333 K, 14400 kPa, x1 = 0.0002622	581.45
333 K, 14800 kPa, x1 = 0.0003278	597.96
343 K, 13400 kPa, x1 = 9.77e-05	425.4
343 K, 13700 kPa, x1 = 0.0001344	441.9
343 K, 14000 kPa, x1 = 0.0001772	457.97
343 K, 14300 kPa, x1 = 0.0002091	473.49
343 K, 14600 kPa, x1 = 0.0002392	488.4
353 K, 13600 kPa, x1 = 0.0001134	366.46
353 K, 14000 kPa, x1 = 0.0001546	384.26
353 K, 14400 kPa, x1 = 0.0002019	402
353 K, 14700 kPa, x1 = 0.0002432	415.16
353 K, 15000 kPa, x1 = 0.0002821	428.15
